Experimental data as given in PubChem BioAssay AID274 (DTP/NCI, 2004).
Where “and” joins values, the source holds several entries; their conditions need not be identical. Identical values can stand only once. Inconclusive results and toxic doses are left out. How the source made its calls: active means survival T/C of 150% or more; inactive means T/C below 125% in these data. Numbered stars: 1 amine (or outer) side, 2 acyl side, 3 side chain; on linkers, the order of the positions; unused ones are H or OH. Bridge positions count the residues as written; N and C are the ends. Square brackets hold non-standard residues; d marks the D form. Peptide text beside a SMILES is read from it. I, II: the chains in the order shown. Actinocin(9to1) = Cc1c2oc3c(C)ccc(C(=O)[*:1])c3nc-2c(C(=O)[*:2])c(N)c1=O; NMeV = CN[CH](C(=O)O)C(C)C; Aze = O=C(O)[CH]1CCN1; Sar = CNCC(=O)O

System: BDF1 mice, Lewis lung carcinoma iv, survival T/C
Test: NCI In Vivo Anticancer Drug Screen. Data for tumor model Lewis Lung Carcinoma (intravenous) in B6D2F1 (BDF1) mice
Conditions: endpoint: median survival time, higher = longer survival
Experimental: The antitumor activity of compounds was measured in mice bearing transplantable tumors. Survival or tumor size were measured and the results are expressed as the measurement made in the treated group (T) divided by the measurement made in the vehicle treated control group (C). The tumor model used in this assay is Lewis Lung Carcinoma (intravenous) in B6D2F1 (BDF1) mice

[1] = dose: 50.0 mg/kg/injection, schedule: Q01DX009 (ip), vehicle: saline with Tween-80
[2] = dose: 100.0 mg/kg/injection, schedule: Q01DX009 (ip), vehicle: saline with Tween-80
[3] = dose: 200.0 mg/kg/injection, schedule: Q01DX009 (ip), vehicle: saline with Tween-80
[4] = dose: 400.0 mg/kg/injection, schedule: Q01DX009 (ip), vehicle: saline with Tween-80
[5] = dose: 12.5 mg/kg/injection, schedule: Q01DX009 (ip), vehicle: saline with Tween-80
[6] = dose: 25.0 mg/kg/injection, schedule: Q01DX009 (ip), vehicle: saline with Tween-80
[7] = dose: 0.25 mg/kg/injection, schedule: Q01DX009 (ip), vehicle: saline
[8] = dose: 0.5 mg/kg/injection, schedule: Q01DX009 (ip), vehicle: saline
[9] = dose: 1.0 mg/kg/injection, schedule: Q01DX009 (ip), vehicle: saline
[10] = dose: 2.0 mg/kg/injection, schedule: Q01DX009 (ip), vehicle: saline
[11] = dose: 25.0 mg/kg/injection, schedule: Q01DX009 (ip), vehicle: saline
[12] = dose: 50.0 mg/kg/injection, schedule: Q01DX009 (ip), vehicle: saline
[13] = dose: 100.0 mg/kg/injection, schedule: Q01DX009 (ip), vehicle: saline
[14] = dose: 50.0 mg/kg/injection, schedule: Q01DX009 (ip), vehicle: Klucel (hydroxypropylcellulose) (HPC)
[15] = dose: 25.0 mg/kg/injection, schedule: Q01DX009 (ip), vehicle: Klucel (hydroxypropylcellulose) (HPC)

Measured: T/C

CCOC(=O)NC(N)=O
inactive: [1] 97 % of control | [2] 100 % of control | [3] 122 % of control | [4] 107 % of control

CC(=O)CC(C)=O.CC(=O)CC(C)=O.O=N[O-].O=N[O-].[Co]
inactive: [5] 103 % of control | [6] 96 % of control | [1] 107 % of control

CC1CN1CC(O)C(O)CN1CC1C (stereo not given)
inactive: [7] 99 % of control | [8] 111 % of control and 116 % of control | [9] 121 % of control and 116 % of control | [10] 123 % of control

COc1ccc(OC)c(/C=C/c2ccnc3ccccc23)c1
inactive: [5] 94 % of control and 100 % of control | [6] 104 % of control and 117 % of control | [1] 94 % of control and 112 % of control | [2] 102 % of control and 109 % of control | [3] 101 % of control and 109 % of control | [4] 104 % of control and 119 % of control

CC1(C)COCN1COCCOCN1COCC1(C)C
inactive: dose: 6.25 mg/kg/injection, schedule: Q01DX009 (ip), vehicle: saline 114 % of control | dose: 12.5 mg/kg/injection, schedule: Q01DX009 (ip), vehicle: saline 97 % of control | [11] 106 % of control | [12] 122 % of control | [13] 95 % of control

O=C1C(Cl)=C(Cl)C(=O)C2=C1C1c3ccccc3C2c2ccccc21
inactive: [5] 104 % of control | [6] 103 % of control | [1] 103 % of control

CCCCCCCCCCCC(c1ccccc1)[N+](C)(C)C (stereo not given)
inactive: [9] 96 % of control | [10] 105 % of control | dose: 4.0 mg/kg/injection, schedule: Q01DX009 (ip), vehicle: saline 101 % of control

COc1cc(C(=O)c2cocc2C(=O)c2ccc3c(c2)OCO3)cc(OC)c1OC
inactive: [14] 88 % of control | dose: 400.0 mg/kg/injection, schedule: Q01DX009 (ip), vehicle: Klucel (hydroxypropylcellulose) (HPC) 94 % of control

Cc1c2oc3c(C)ccc(C(=O)NC4C(=O)NC(C(C)C)C(=O)N5CCC5C(=O)N(C)CC(=O)N(C)C(C(C)C)C(=O)OC4C)c3nc-2c(C(=O)NC2C(=O)NC(C(C)C)C(=O)N3CCC3C(=O)N(C)CC(=O)N(C)C(C(C)C)C(=O)OC2C)c(N)c1=O (stereo not given) (I: TV[Aze][Sar][NMeV] / II: TV[Aze][Sar][NMeV]; ester I:1-I:C, II:1-II:C; linker I:N-II:N via Actinocin(9to1); configuration not given here)
inactive: dose: 194.0 micrograms/kg/injection, schedule: Q04DX003 (ip), vehicle: saline + alcohol 87 % of control | dose: 270.0 micrograms/kg/injection, schedule: Q04DX003 (ip), vehicle: saline + alcohol 94 % of control | dose: 324.0 micrograms/kg/injection, schedule: Q04DX003 (ip), vehicle: saline + alcohol 95 % of control | dose: 450.0 micrograms/kg/injection, schedule: Q04DX003 (ip), vehicle: saline + alcohol 95 % of control | dose: 540.0 micrograms/kg/injection, schedule: Q04DX003 (ip), vehicle: saline + alcohol 109 % of control | dose: 648.0 micrograms/kg/injection, schedule: Q01DX001 (ip), vehicle: saline + alcohol 97 % of control | dose: 750.0 micrograms/kg/injection, schedule: Q04DX003 (ip), vehicle: saline + alcohol 108 % of control | dose: 1080.0 micrograms/kg/injection, schedule: Q01DX001 (ip), vehicle: saline + alcohol 98 % of control

C1CCC2OCCOCCOC3CCCCC3OCCOCCOC2C1 (stereo not given)
inactive: dose: 3.12 mg/kg/injection, schedule: Q01DX009 (ip), vehicle: Klucel (hydroxypropylcellulose) (HPC) 92 % of control | dose: 6.25 mg/kg/injection, schedule: Q01DX009 (ip), vehicle: Klucel (hydroxypropylcellulose) (HPC) 87 % of control | dose: 12.5 mg/kg/injection, schedule: Q01DX009 (ip), vehicle: Klucel (hydroxypropylcellulose) (HPC) 101 % of control | [15] 93 % of control | [14] 91 % of control

NCCCNCCSP(=O)(O)O
inactive: dose: 300.0 mg/kg/injection, schedule: Q01DX001 (ip), vehicle: saline 88 % of control | dose: 500.0 mg/kg/injection, schedule: Q01DX001 (ip), vehicle: saline 88 % of control

O=C1NC(=O)/C(=C/C=C/c2ccccc2)S1
inactive: [5] 95 % of control | [6] 104 % of control | [1] 101 % of control | [2] 95 % of control | [3] 105 % of control | [4] 104 % of control

NC(N)=NOCC[C@@H](N)C(=O)O
inactive: [11] 105 % of control | [12] 99 % of control | [13] 107 % of control | dose: 200.0 mg/kg/injection, schedule: Q01DX009 (ip), vehicle: saline 94 % of control | dose: 400.0 mg/kg/injection, schedule: Q01DX009 (ip), vehicle: saline 112 % of control

COC(=O)c1[nH]c(=O)[nH]c(=O)c1F
inactive: dose: 6.25 mg/kg/injection, schedule: Q01DX009 (ip), vehicle: saline with Tween-80 106 % of control | [5] 115 % of control | [6] 98 % of control

O=C(NCCCCCCNC(=O)N1CC1)N1CC1
inactive: dose: 0.3 mg/kg/injection, schedule: Q01DX009 (ip), vehicle: saline 104 % of control | dose: 0.6 mg/kg/injection, schedule: Q01DX009 (ip), vehicle: saline 119 % of control | dose: 1.2 mg/kg/injection, schedule: Q01DX009 (ip), vehicle: saline 115 % of control | dose: 2.4 mg/kg/injection, schedule: Q01DX009 (ip), vehicle: saline 120 % of control

COc1ccc(CCNC(C)=O)cc1OC
inactive: [15] 90 % of control | [14] 94 % of control | dose: 100.0 mg/kg/injection, schedule: Q01DX009 (ip), vehicle: Klucel (hydroxypropylcellulose) (HPC) 103 % of control | dose: 200.0 mg/kg/injection, schedule: Q01DX009 (ip), vehicle: Klucel (hydroxypropylcellulose) (HPC) 105 % of control

CC(=O)NC(C=O)OCC=O (stereo not given)
inactive: dose: 6.25 mg/kg/injection, schedule: Q01DX009 (ip), vehicle: water 101 % of control | dose: 12.5 mg/kg/injection, schedule: Q01DX009 (ip), vehicle: water 110 % of control | dose: 25.0 mg/kg/injection, schedule: Q01DX009 (ip), vehicle: water 102 % of control | dose: 50.0 mg/kg/injection, schedule: Q01DX009 (ip), vehicle: water 111 % of control | dose: 100.0 mg/kg/injection, schedule: Q01DX009 (ip), vehicle: water 106 % of control

CCc1cc(C(N)=S)ccn1
inactive: dose: 72.0 mg/kg/injection, schedule: Q01DX007 (ip), vehicle: Klucel (hydroxypropylcellulose) (HPC) 96 % of control | dose: 102.9 mg/kg/injection, schedule: Q01DX007 (ip), vehicle: Klucel (hydroxypropylcellulose) (HPC) 95 % of control | dose: 147.0 mg/kg/injection, schedule: Q01DX007 (ip), vehicle: Klucel (hydroxypropylcellulose) (HPC) 86 % of control | dose: 300.0 mg/kg/injection, schedule: Q01DX007 (ip), vehicle: Klucel (hydroxypropylcellulose) (HPC) 99 % of control

CC(=O)O[C@@H]1C(=O)C=C(C)[C@@H]2[C@@H](OC(=O)C=C(C)C)[C@H]3OC(=O)C[C@H]4[C@@H](C)[C@@H](O)[C@]5(O)OC[C@]34[C@H]5[C@@]12C
inactive: dose: 0.12 mg/kg/injection, schedule: Q01DX009 (ip), vehicle: saline 107 % of control | [7] 106 % of control | [8] 102 % of control | [9] 107 % of control
